This is an account of results in patent publication US7754445B2, “Method for the enzymatic production of a curing agent and its fluid state” (TMI Europe, priority 2001, dated 2010).

The data set is described as follows: monitoring the stability of the solution (hypothiocyanite concentration in water leaving the reactor). Type of data set: physicochemical. The text has this:
The hypothiocyanite ions (OSCN^−) are able to react with the sulfhydryl groups of a 5,5′-dithiobis (2-nitrobenzoic acid) molecule which has previously been reduced in the presence of an excess of sodium borohydride.
This reduced molecule absorbs light at a wavelength of 412 nm.
When the hypothiocyanite ions (OSCN^−) oxidize the sulfhydryl groups, the absorbance at 412 nm decreases in proportion to the quantity of ions which are present in the sample, thereby enabling them to be quantified.
The methods described above are used to monitor the change in the concentration of hypothiocyanite ion, i.e. OSCN^−, in solutions leaving the reactor, the results of which are obtained are illustrated in FIGS. 3 and 4, which depict the curve for the changes in the concentration of hypothiocyanite ion, OSCN^−, in the water leaving the reactor over a period of 1 day (FIGS. 4) and 4 days (FIG. 3).

`N#CSO` [OSCN^−, hypothiocyanite ion]: the “concentration of OSCN^−” value came out at 500000 µM (after 10 hours (FIG. 4)) and 600000 µM (initial, solution leaving the reactor (FIG. 4)). Moreover, the “fall in concentration of OSCN^−” value (after 20 hours (FIG. 4)) stood at 50%. Further, where the note is “after 80 hours (FIG. 3)”, the “residual concentration of hypothiocyanite ion, relative to the initial concentration” value is recorded as 16%.
